Assay results reported in article PMC3171408, “Analysis of the BarA/UvrY Two-Component System in Shewanella oneidensis MR-1” (PLoS ONE, 2011).

Target: T1, BarA(181–929) (Shewanella oneidensis, UniProt Q8EBQ2)
T1 construct: cytoplasmic region aa 181-929 of 929 aa (full length 103 kDa; two N-terminal TM domains removed), N-terminal 6xHis tag (pBAD-HisA), expressed in E. coli, Ni-NTA purified
T1 sequence (Q8EBQ2 187-935): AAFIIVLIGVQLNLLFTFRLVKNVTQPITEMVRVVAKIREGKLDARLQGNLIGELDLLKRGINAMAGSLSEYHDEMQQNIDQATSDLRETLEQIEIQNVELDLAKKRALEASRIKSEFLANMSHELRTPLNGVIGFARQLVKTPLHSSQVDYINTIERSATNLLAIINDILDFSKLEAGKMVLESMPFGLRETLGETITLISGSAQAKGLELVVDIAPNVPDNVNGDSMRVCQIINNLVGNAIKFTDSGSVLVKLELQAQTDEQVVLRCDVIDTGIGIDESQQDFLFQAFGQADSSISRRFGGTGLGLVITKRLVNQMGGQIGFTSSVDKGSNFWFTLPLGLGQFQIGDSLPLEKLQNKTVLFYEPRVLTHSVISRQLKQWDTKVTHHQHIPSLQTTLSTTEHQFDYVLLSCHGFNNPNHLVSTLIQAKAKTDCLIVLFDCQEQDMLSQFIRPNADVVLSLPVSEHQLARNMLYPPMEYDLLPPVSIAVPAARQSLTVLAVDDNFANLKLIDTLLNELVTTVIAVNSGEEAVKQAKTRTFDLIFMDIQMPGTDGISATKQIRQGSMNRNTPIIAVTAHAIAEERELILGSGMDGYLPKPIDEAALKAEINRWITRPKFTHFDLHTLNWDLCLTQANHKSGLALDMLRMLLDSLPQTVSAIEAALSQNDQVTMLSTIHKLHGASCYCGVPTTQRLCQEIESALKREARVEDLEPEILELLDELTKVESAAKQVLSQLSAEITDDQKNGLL
Experiment: autophosphorylation, SDS-PAGE autoradiography
Format: biochemical
Settings: 0.5 mM ATP, 10 µM protein, 5 mM MgCl2, 50 mM KCl, pH 8.0, room temperature; labelled compound

In the case of `Nc1ncnc2c1ncn2[C@@H]1O[C@H](COP(=O)(O)OP(=O)(O)OP(=O)(O)O)[C@@H](O)[C@H]1O` [[γ-^32P]ATP], the “autophosphorylation, SDS-PAGE autoradiography” value is reported as “BarA was readily phosphorylated, indicating autophosphorylation activity of the kinase region”.
